Assay results from ChEMBL document CHEMBL1154247, “Biscarpamontamines A and B, an aspidosperma-iboga bisindole alkaloid and an aspidosperma-aspidosperma bisindole alkaloid, from Tabernaemontana sphaerocarpa” (J Nat Prod, 2009).

Experiments:
Format in all cases: functional, cell-based
HL-60 = test: Cytotoxicity against human HL60 cells after 48 hrs by MTT assay; details: HL-60, 48 h
RPMI-8226 = test: Cytotoxicity against human RPMI8226 cells after 48 hrs by MTT assay; details: RPMI-8226, 48 h
NCI-H226 = test: Cytotoxicity against human NCI-H226 cells after 48 hrs by MTT assay; details: NCI-H226, 48 h
HCT-116 = test: Cytotoxicity against human HCT116 cells after 48 hrs by MTT assay; details: HCT-116, 48 h
MCF7 = test: Cytotoxicity against human MCF7 cells after 48 hrs by MTT assay; details: MCF7, 48 h

Row | SMILES | IC50 (HL-60) [µM] | IC50 (RPMI-8226) [µM] | IC50 (NCI-H226) [µM] | IC50 (HCT-116) [µM] | IC50 (MCF7) [µM]
1 | CC[C@H]1C[C@H]2C[C@@]3(C(=O)OC)c4c(c5cc(OC)ccc5n4CC4=C[C@@]5(CCO)CC(C(=O)OC)=C6Nc7ccccc7[C@@]67CCN(C4)[C@@H]57)CCN([C@@H]2O)[C@@H]13 [BISCARPAMONTAMINE A] | 12.2 | 27.9 | 16.9 | 14 | 25.3
2 | CC[C@]1(O)C[C@@H]2CN(CCc3c([nH]c4ccccc34)[C@@](C(=O)OC)(c3cc4c(cc3OC)N(C)[C@H]3[C@@](O)(C(=O)OC)[C@H](OC(C)=O)[C@]5(CC)C=CCN6CC[C@]43[C@@H]65)C2)C1 [VINBLASTINE] | 0.0016 |  |  |  | 
3 | CC[C@]1(O)C[C@H]2CN(CCc3c([nH]c4ccccc34)[C@@](C(=O)OC)(c3cc4c(cc3OC)N(C=O)[C@H]3[C@@](O)(C(=O)OC)[C@H](OC(C)=O)[C@]5(CC)C=CCN6CC[C@]43[C@@H]65)C2)C1 [VINCRISTINE] | 0.00087 |  |  |  | 
